Experimental data from patent US11213524B2, “Pharmaceutical compositions for subcutaneous administration of levosimendan” (Tenax Therapeutics, Inc., priority 2018, dated 2022).
Values belong to the compound of their own block, whether it stands above or below them.

Columns and labels:
[1] = Storage stability of lyophilized levosimendan/Captisol composition (HPLC % area); format: physicochemical; conditions: for quantity of OR-1420: after 6 months
Experimental: A study was conducted to determine the stability of a levosimendan composition of the present invention stored under different conditions for up to six months.
The composition used for the study comprised 3 mg/ml of levosimendan and 200 mg/ml of Captisol®. To prepare the composition, the levosimendan and Captisol® were mixed together, adjusted to a pH of 7.4 using 1N NaOH, and then lyophilized.
Samples were dissolved in 50% acetonitrile and stored frozen at approximately −20° C. The compositions were analyzed at the following time points: 0, 1-month, 2-months, 4-months, and 6-months. The compositions were taken out of storage and reconstituted using distilled water. A sample from each composition was diluted at 15x-150x and analyzed using HPLC (Sciex API 3200 Linear Ion Trap, Shimadzu LC-20ADVP HPLC Pumps, Shimadzu Controller SCL-10AVP, Shimadzu Autosampler SIL-20ADVP) under the following conditions: Column, Restek Raptor Biphenyl, 2.7 μm, 100×3 mm; Mobile phase A, 5 mM Ammonium Formate/0.1% FA in H2O; Mobile phase B, 100% methanol).

[2] = cited from earlier work
[3] = Solubility of levosimendan at different Captisol concentrations (HPLC); format: physicochemical; conditions: 10 mM phosphate buffer, pH 7, Captisol 0, 50, 100, 200, 400 mg/ml, room temperature
Experimental: A study was conducted to evaluate the impact of the concentration of the cyclodextrin or cyclodextrin derivative on the solubility of levosimendan. In particular, the study focused on the cyclodextrin derivative, Captisol® (sulfobutylether beta-cyclodextrin).
The study compared compositions comprising levosimendan, 10 mM phosphate buffer, and Captisol® at the following concentrations: 0 mg/ml (i.e., no Captisol®), 50 mg/ml, 100 mg/ml, 200 mg/ml, and 400 mg/ml. The compositions with Captisol® were prepared by mixing the levosimendan and Captisol®, and adding the 10 mM phosphate buffer until the pH of the composition was 7. The compositions were stored at room temperature.
Captisol®'s impact on the solubility of levosimendan was determined using HPLC.

[4] = Pharmacokinetic study, IV vs subcutaneous dosing, plasma levosimendan and OR-1896 by HPLC/MS/MS; conditions: male, Sprague Dawley, rat, in vivo
Experimental: A pharmacokinetic study was conducted in male Sprague Dawley rats to compare subcutaneous administration of a composition of the present invention with IV administration of a formulation of levosimendan. The study evaluated levosimendan blood levels and pain at the injection site.
This study involved comparing the results of administering two subcutaneous compositions according to embodiments of the present invention to a previous pharmacokinetic study in which male rats were dosed by tail vein levosimendan as an IV bolus injection at 0.5 mg/kg using a 0.25 mg/ml solution. […]
Plasma samples were analyzed for levosimendan and OR-1896 (the primary metabolite) by HPLC/MS/MS. […]

[5] = after four months, 25° C./60% RH
[6] = after six months, 25° C./60% RH

Level of OR-1420 (% Area) ([1]; 5° C., 1-month): 0.055% Area
Level of OR-1420 (% Area) ([1]; 5° C., 4-months): 0.057% Area
Level of OR-1420 (% Area) ([1]; 5° C., 6-months): 0.112% Area
Level of OR-1420 (% Area) ([1]; 25° C./60% RH, 1-month): 0.155% Area
Level of OR-1420 (% Area) ([1]; 25° C./60% RH, 2-months): 0.212% Area
Level of OR-1420 (% Area) ([1]; 25° C./60% RH, 4-months): 0.285% Area
Level of OR-1420 (% Area) ([1]; 25° C./60% RH, 6-months): 0.377% Area
Level of OR-1420 (% Area) ([1]; 40° C./75% RH, 1-month): 0.436% Area
Level of OR-1420 (% Area) ([1]; 40° C./75% RH, 4-months): 0.999% Area
Level of OR-1420 (% Area) ([1]; 40° C./75% RH, 6-months): 1.420% Area
quantity of OR-1420 ([1]; 40° C./75% RH): below 1.5%
Level of OR-1420 (% Area) ([1]; T0): 0.021% Area
Level of Degradants (% Area) ([1]; after four months, 5° C.): 0.057 % Area
Level of Degradants (% Area) [1, 5]: 0.285 % Area
Level of Degradants (% Area) ([1]; after four months, 40° C./75% RH): 0.999 % Area
Level of Degradants (% Area) ([1]; after four months, −20° C.): 0.045 % Area
Level of Degradants (% Area) ([1]; after four months, −80° C.): 0.084 % Area
Level of Degradants (% Area) ([1]; after six months, 5° C.): 0.112 % Area
Level of Degradants (% Area) [1, 6]: 0.377 % Area
Level of Degradants (% Area) ([1]; after six months, 40° C./75% RH): 1.42 % Area
Level of Degradants (% Area) ([1]; after six months, −20° C.): 0.082 % Area
Level of Degradants (% Area) ([1]; after six months, −80° C.): 0.083 % Area
quantity of OR-1420 ([1]; all other storage conditions): less than 0.5%
Level of OR-1420 (% Area) ([1]; −20° C., 1-month): 0.050% Area
Level of OR-1420 (% Area) ([1]; −20° C., 4-months): 0.045% Area
Level of OR-1420 (% Area) ([1]; −20° C., 6-months): 0.082% Area
Level of OR-1420 (% Area) ([1]; −80° C., 1-month): 0.055% Area
Level of OR-1420 (% Area) ([1]; −80° C., 4-months): 0.084% Area
Level of OR-1420 (% Area) ([1]; −80° C., 6-months): 0.083% Area
Compound: C[C@@H]1CC(=O)NN=C1c1ccc(N/N=C(\C#N)C(N)=O)cc1 [OR-1420]

Compound: CC(=O)Nc1ccc(C2=NNC(=O)C[C@H]2C)cc1 [OR-1896]
time at which maximum concentrations of OR-1896 are seen ([2]; after starting a 24-hour infusion): 2 to 4 days
half-life of OR-1896 ([2]; heart failure patients): 70 to 80 h

Compound: C[C@@H]1CC(=O)NN=C1c1ccc(NN=C(C#N)C#N)cc1 [levosimendan, (−)-enantiomer of [[4-(1,4,5,6-tetrahydro-4-methyl-6-oxo-3-pyridazinyl)phenyl]hydrazono]prop anedinitrile]
solubility of levosimendan [3]: increased as the concentration of Captisol® increased
Levels of Levosimendan (% Area) ([1]; 3 mg/ml levosimendan, 200 mg/ml Captisol, lyophilized, T0): 99.98% Area
Levels of Levosimendan (% Area) ([1]; 5° C., 1-month): 99.85% Area
Levels of Levosimendan (% Area) ([1]; 5° C., 2-months): 100.00% Area
Levels of Levosimendan (% Area) ([1]; 5° C., 4-months): 99.74% Area
Levels of Levosimendan (% Area) ([1]; 5° C., 6-months): 99.73% Area
Levels of Levosimendan (% Area) ([1]; 25° C./60% RH, 1-month): 99.75% Area
Levels of Levosimendan (% Area) ([1]; 25° C./60% RH, 2-months): 99.79% Area
Levels of Levosimendan (% Area) ([1]; 25° C./60% RH, 4-months): 99.51% Area
Levels of Levosimendan (% Area) ([1]; 25° C./60% RH, 6-months): 99.49% Area
Levels of Levosimendan (% Area) ([1]; 40° C./75% RH, 1-month): 99.51% Area
Levels of Levosimendan (% Area) ([1]; 40° C./75% RH, 4-months): 98.88% Area
Levels of Levosimendan (% Area) ([1]; 40° C./75% RH, 6-months): 98.37% Area
Level of Degradants (% Area) ([1]; after four months, 5° C.): 99.91 % Area
Level of Degradants (% Area) [1, 5]: 99.64 % Area
Level of Degradants (% Area) ([1]; after four months, −20° C.): 99.93 % Area
Level of Degradants (% Area) ([1]; after six months, 5° C.): 99.90 % Area
Level of Degradants (% Area) [1, 6]: 99.57 % Area
level of levosimendan ([1]; each storage condition, after six months): over 98%
Levels of Levosimendan (% Area) ([1]; −20° C., 1-month): 99.83% Area
Levels of Levosimendan (% Area) ([1]; −20° C., 4-months): 99.79% Area
Levels of Levosimendan (% Area) ([1]; −20° C., 6-months): 99.72% Area
Levels of Levosimendan (% Area) ([1]; −80° C., 1-month): 99.82% Area
Levels of Levosimendan (% Area) ([1]; −80° C., 4-months): 99.74% Area
Levels of Levosimendan (% Area) ([1]; −80° C., 6-months): 99.74% Area
start of the β phase (loss of drug from blood mainly due to metabolism) [4]: about 2 hours
share of total levosimendan dose reduced in the intestine to OR-1855 (minor pathway) ([2]; in vivo): approximately 6%
terminal elimination half-life of levosimendan ([2]; in vivo): about 1 hour
